# Target: α4β7 integrin (Homo sapiens (Human), UniProt P13612+P26010)
# Assay: α4β7 Integrin Cell Capture Assay
# Assay type: cell-based
# Settings: RPMI8866 cells captured on MadCAM-1 extracellular domain-coated plate
# Sequence of α4β7 integrin (P13612 34-1032): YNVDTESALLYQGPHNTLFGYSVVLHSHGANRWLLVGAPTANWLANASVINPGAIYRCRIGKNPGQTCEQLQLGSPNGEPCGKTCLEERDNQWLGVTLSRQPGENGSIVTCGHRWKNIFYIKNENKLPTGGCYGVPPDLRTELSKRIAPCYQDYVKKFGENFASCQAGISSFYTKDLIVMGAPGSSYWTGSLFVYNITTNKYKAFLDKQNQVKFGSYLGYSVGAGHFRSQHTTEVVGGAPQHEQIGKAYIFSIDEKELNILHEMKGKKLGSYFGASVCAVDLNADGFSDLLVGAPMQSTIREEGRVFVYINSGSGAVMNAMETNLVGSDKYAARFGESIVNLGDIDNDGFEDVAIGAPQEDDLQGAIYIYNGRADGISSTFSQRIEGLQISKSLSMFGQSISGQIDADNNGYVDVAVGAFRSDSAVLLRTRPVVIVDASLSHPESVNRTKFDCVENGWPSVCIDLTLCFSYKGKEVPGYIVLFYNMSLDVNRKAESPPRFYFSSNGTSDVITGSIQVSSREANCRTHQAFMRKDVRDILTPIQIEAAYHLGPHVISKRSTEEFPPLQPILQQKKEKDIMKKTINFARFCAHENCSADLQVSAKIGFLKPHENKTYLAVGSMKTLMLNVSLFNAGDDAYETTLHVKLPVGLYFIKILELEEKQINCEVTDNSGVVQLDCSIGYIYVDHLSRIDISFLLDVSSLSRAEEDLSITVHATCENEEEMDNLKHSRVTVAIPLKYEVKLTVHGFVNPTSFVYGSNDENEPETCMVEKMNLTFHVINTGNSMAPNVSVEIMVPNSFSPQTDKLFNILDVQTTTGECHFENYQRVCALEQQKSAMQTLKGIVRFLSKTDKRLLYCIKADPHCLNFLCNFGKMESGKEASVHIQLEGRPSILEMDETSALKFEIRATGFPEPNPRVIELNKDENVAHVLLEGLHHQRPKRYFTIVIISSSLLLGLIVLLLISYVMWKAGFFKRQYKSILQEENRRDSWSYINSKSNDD
# Sequence of α4β7 integrin (P26010 20-798): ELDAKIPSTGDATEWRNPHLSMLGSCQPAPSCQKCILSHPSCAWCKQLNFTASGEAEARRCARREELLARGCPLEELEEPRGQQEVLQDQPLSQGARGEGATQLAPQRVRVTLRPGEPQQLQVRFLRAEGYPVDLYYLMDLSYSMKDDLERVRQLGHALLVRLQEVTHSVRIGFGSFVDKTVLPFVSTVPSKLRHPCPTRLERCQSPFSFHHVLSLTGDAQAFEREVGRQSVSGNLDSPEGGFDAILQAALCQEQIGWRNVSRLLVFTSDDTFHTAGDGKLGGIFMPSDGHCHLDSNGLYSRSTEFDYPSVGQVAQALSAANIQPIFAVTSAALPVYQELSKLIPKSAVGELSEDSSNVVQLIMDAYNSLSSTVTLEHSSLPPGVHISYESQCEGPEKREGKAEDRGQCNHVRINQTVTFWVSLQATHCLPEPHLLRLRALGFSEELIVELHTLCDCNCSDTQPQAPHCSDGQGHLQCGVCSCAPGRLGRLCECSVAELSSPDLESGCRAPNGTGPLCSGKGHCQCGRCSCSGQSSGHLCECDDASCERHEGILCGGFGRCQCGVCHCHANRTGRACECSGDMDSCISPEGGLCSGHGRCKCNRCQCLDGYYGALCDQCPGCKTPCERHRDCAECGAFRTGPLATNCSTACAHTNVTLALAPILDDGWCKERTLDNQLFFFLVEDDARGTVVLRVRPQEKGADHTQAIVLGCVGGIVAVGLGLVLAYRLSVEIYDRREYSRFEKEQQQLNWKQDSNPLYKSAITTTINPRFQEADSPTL
row,SMILES,EC50 [nM]
1,Cc1cc(C(F)(F)F)c(-c2ccc(C[C@H](NC(=O)c3c(F)cc(N4CCOC5(COC5)C4)cc3F)C(=O)O)c3cccnc23)c(=O)n1C [Example 459],2.07
2,Cc1cc(N2CCOC[C@@H]2C(F)(F)F)cc(F)c1C(=O)N[C@@H](Cc1ccc(-n2c(=O)c3cc(N(C)C)ncc3n(C)c2=O)c2ncccc12)C(=O)O [Example 416],0.126
3,Cc1cc(N2CCOC[C@@H]2C(F)(F)F)cc(F)c1C(=O)N[C@@H](Cc1ccc(-c2cc(C)c(C)n(C)c2=O)c2ncccc12)C(=O)O [Example 455],0.211
4,Cc1cc(N2CCOC[C@@H]2C(F)(F)F)cc(F)c1C(=O)N[C@@H](Cc1ccc(-c2nc(C)c(C)n(C)c2=O)c2ncc(F)cc12)C(=O)O [Example 452],0.232
5,Cc1cc(N2CCOC[C@@H]2C(F)(F)F)cc(F)c1C(=O)N[C@@H](Cc1ccc(-c2ccc(C)n(C)c2=O)c2ncccc12)C(=O)O [Example 444],0.161
6,Cc1cc(N2CCOC[C@H]2C(F)(F)F)cc(F)c1C(=O)N[C@@H](Cc1ccc(-n2c(=O)c3ccncc3n(C)c2=O)c2ncccc12)C(=O)O [Example 409],0.401
7,Cn1c(=O)n(-c2ccc(C[C@H](NC(=O)c3c(F)cc(N4CCOC[C@@H]4C(F)(F)F)cc3F)C(=O)O)c3cc(F)cnc23)c(=O)c2cnccc21 [Example 430],0.469
8,CC[C@@H](Nc1cc(C)c(C(=O)N[C@@H](Cc2ccc(-c3c(C)nc(C)n(C)c3=O)c3ncccc23)C(=O)O)c(F)c1)C(F)(F)F [Example 442],0.227
9,"Cc1cc(N2CCOC[C@@H]2C(F)(F)F)cc(F)c1C(=O)N[C@@H](Cc1ccc(-n2c(=O)c3ncccc3n(C)c2=O)c2ncccc12)C(=O)O [Example 399, (S)-2-(2-fluoro-6-methyl-4-((R)-3-(trifluoromethyl)morpholino)benzamido)-3-(8-(1-methyl-2,4-dioxo-1,4-dihydropyrido[3,2-d]pyrimidin-3(2H)-yl)quinolin-5-yl)propanoic acid]",0.1
10,Cc1cc2c(=O)n(-c3ccc(C[C@H](NC(=O)c4c(C)cc(N5CCOC[C@@H]5C(F)(F)F)cc4F)C(=O)O)c4cccnc34)c(=O)n(C)c2cn1 [Example 425],0.185
11,Cc1cc(N2CCOC[C@@H]2C(F)(F)F)cc(F)c1C(=O)N[C@@H](Cc1ccc(-c2nc(C)c(C)c(C)n2)c2ncccc12)C(=O)O [Example 443],0.714
12,Cc1cc(C(F)(F)F)c(-c2ccc(C[C@H](NC(=O)c3c(F)cc(N4CCCOCC4)cc3F)C(=O)O)c3cccnc23)c(=O)n1C [Example 441],0.412

# Same assay, conditions: Table 1; capture of α4β7 expressing RPM18866 cells on MadCAM-1 extracellular domain-coated plate
row,SMILES,EC50 [nM]
1,"COc1cc(Cl)c(Cl)cc1-c1ccc(C[C@H](NC(=O)c2c(F)cccc2F)C(=O)O)c2cccnc12 [Example 5, (S)-3-(8-(4,5-dichloro-2-methoxyphenyl)quinolin-5-yl)-2-(2,6-difluorobenzamido)propanoic acid]",17.4
2,"CCOCc1cc(OC)c(-c2ccc(C[C@H](NC(=O)c3c(F)cc(C(N)=O)cc3F)C(=O)O)c3cccnc23)c(OC)c1 [Example 43, (S)-2-(4-carbamoyl-2,6-difluorobenzamido)-3-(8-(4-(ethoxymethyl)-2,6-dimethoxyphenyl)quinolin-5-yl)propanoic acid]",4.6
3,"Cc1cc(C(F)(F)F)c(-c2ccc(C[C@H](NC(=O)c3c(Cl)cccc3Cl)C(=O)O)c3cccnc23)c(=O)n1C [Example 73, (S)-2-(2,6-dichlorobenzamido)-3-(8-(1,6-dimethyl-2-oxo-4-(trifluoromethyl)-1,2-dihydropyridin-3-yl)quinolin-5-yl)propanoic acid]",2.5
4,"Cc1cc(C(F)(F)F)c(-c2ccc(C[C@H](NC(=O)c3c(F)cc(N4CCO[C@H](C)[C@@H]4C(F)(F)F)cc3F)C(=O)O)c3cccnc23)c(=O)n1C [Example 137, (S)-2-(2,6-difluoro-4-((2R,3R)-2-methyl-3-(trifluoromethyl)morpholino)benzamido)-3-(8-(1,6-dimethyl-2-oxo-4-(trifluoromethyl)-1,2-dihydropyridin-3-yl)quinolin-5-yl)propanoic acid]",0.4
5,"N#Cc1ccc(-c2ccc(C[C@H](NC(=O)c3c(F)cc(NC(C(F)(F)F)C(F)(F)F)cc3F)C(=O)O)c3cccnc23)c(Cl)c1 [Example 88, (S)-3-(8-(2-chloro-4-cyanophenyl)quinolin-5-yl)-2-(2,6-difluoro-4-((1,1,1,3,3,3-hexafluoropropan-2-yl)amino)benzamido)propanoic acid]",8.2
6,"O=C(N[C@@H](Cc1ccc(-c2ncccn2)c2ncccc12)C(=O)O)c1c(F)cc(NS(=O)(=O)c2ccc(-c3ccnc(F)c3)cc2)cc1F [Example 58, (S)-2-(2,6-difluoro-4-((4-(2-fluoropyridin-4-yl)phenyl)sulfonamido)benzamido)-3-(8-(pyrimidin-2-yl)quinolin-5-yl)propanoic acid]",2
7,"O=C(N[C@@H](Cc1ccc(-c2c(Cl)cncc2Cl)c2ncccc12)C(=O)O)c1c(F)cccc1F [Example 20, (S)-3-(8-(3,5-dichloropyridin-4-yl)quinolin-5-yl)-2-(2,6-difluorobenzamido)propanoic acid]",186
8,"Cc1cc(C)c(-c2ccc(C[C@H](NC(=O)c3c(F)cccc3F)C(=O)O)c3cccnc23)nc1C [Example 11, (S)-2-(2,6-difluorobenzamido)-3-(8-(3,5,6-trimethylpyridin-2-yl)quinolin-5-yl)propanoic acid]",22.9
9,"CC[C@@H](Nc1cc(F)c(C(=O)N[C@@H](Cc2ccc(-c3c(C(F)(F)F)c4ccncc4n(C)c3=O)c3ncccc23)C(=O)O)c(F)c1)C(F)(F)F [Example 111, (S)-2-(2,6-difluoro-4-(((R)-1,1,1-trifluorobutan-2-yl)amino)benzamido)-3-(8-(1-methyl-2-oxo-4-(trifluoromethyl)-1,2-dihydro-1,7-naphthyridin-3-yl)quinolin-5-yl)propanoic acid]",0.1
10,"Cc1cc(C(F)(F)F)c(-c2ccc(C[C@H](NC(=O)c3c(F)cc(N[C@H](C)C(F)(F)F)cc3F)C(=O)O)c3cccnc23)c(=O)n1C [Example 128, (S)-2-(2,6-difluoro-4-(((R)-1,1,1-trifluoropropan-2-yl)amino)benzamido)-3-(8-(1,6-dimethyl-2-oxo-4-(trifluoromethyl)-1,2-dihydropyridin-3-yl)quinolin-5-yl)propanoic acid]",0.3
11,"CC(C)(O)C#Cc1cc(Cl)c(C(=O)N[C@@H](Cc2ccc(-c3ccc(C#N)cc3Cl)c3ncccc23)C(=O)O)c(Cl)c1 [Example 29, (S)-3-(8-(2-chloro-4-cyanophenyl)quinolin-5-yl)-2-(2,6-dichloro-4-(3-hydroxy-3-methylbut-1-yn-1-yl)benzamido)propanoic acid]",68.7
12,"CC[C@@H](Nc1cc(F)c(C(=O)N[C@@H](Cc2ccc(-c3nc(C)ccc3OC)c3ncccc23)C(=O)O)c(F)c1)C(F)(F)F [Example 120, (S)-2-(2,6-difluoro-4-(((R)-1,1,1-trifluorobutan-2-yl)amino)benzamido)-3-(8-(3-methoxy-6-methylpyridin-2-yl)quinolin-5-yl)propanoic acid]",1.3

# Same assay, conditions: Table 2; capture of α4β7 expressing RPM18866 cells on MadCAM-1 extracellular domain-coated plate
row,SMILES,EC50 [nM]
1,Cc1cc(N2CCOC[C@@H]2C(F)(F)F)cc(Cl)c1C(=O)N[C@@H](Cc1ccc(-c2c(C(F)(F)F)cc(C)n(C)c2=O)c2ncccc12)C(=O)O [Example 160],0.3
2,CC[C@@H](Nc1cc(F)c(C(=O)N[C@@H](Cc2ccc(-c3nccc(C)c3C)c3ncccc23)C(=O)O)c(F)c1)C(F)(F)F [Example 307],11.4
3,Cc1cc(C(F)(F)F)c(-c2ccc(C[C@H](NC(=O)c3c(F)cc(N4C[C@H](C)OC[C@@H]4C)cc3F)C(=O)O)c3cccnc23)c(=O)n1C [Example 204],1.7
4,CC[C@@H](Nc1cc(F)c(C(=O)N[C@@H](Cc2ccc(-c3c(C)c(N(C)C)cn(C)c3=O)c3ncccc23)C(=O)O)c(F)c1)C(F)(F)F [Example 287],5.7
5,N#Cc1ccc(-c2ccc(C[C@H](NC(=O)c3c(F)cc(N[C@H](c4cccc(F)c4)C(F)(F)F)cc3F)C(=O)O)c3cccnc23)c(Cl)c1 [Example 334],24.2
6,CC(O)(c1cc(F)c(C(=O)N[C@@H](Cc2ccc(-c3ccc(C#N)cc3Cl)c3ncccc23)C(=O)O)c(F)c1)C(F)(F)F (some centres unmarked) [Example 280],86.1
7,CC[C@@H](Nc1cc(F)c(C(=O)N[C@@H](Cc2ccc(-c3ncc4c(n3)CCC4)c3ncccc23)C(=O)O)c(F)c1)C(F)(F)F [Example 311],12.3
8,Cc1cc(C(F)(F)F)c(-c2ccc(C[C@H](NC(=O)c3c(F)cc(N4CCOC[C@@H]4C(F)(F)F)cc3F)C(=O)O)c3cc(N(C)C)cnc23)c(=O)n1C [Example 281],5.5
9,"CC[C@@H](Nc1cc(F)c(C(=O)N[C@@H](Cc2ccc(-c3c(C(F)(F)F)c4cc(N(C)C)ccc4n(C)c3=O)c3ncccc23)C(=O)O)c(F)c1)C(F)(F)F (atropisomer, axis not shown) [Example 302]",9.4
10,O=C(N[C@@H](Cc1ccc(-c2ncc3c(n2)CCC3)c2ncccc12)C(=O)O)c1c(F)cc(N2CCOC[C@@H]2C(F)(F)F)cc1F [Example 299],8.2
11,CC[C@@H](Nc1cc(F)c(C(=O)N[C@@H](Cc2ccc(-c3c(C(F)(F)F)ccc4cccnc34)c3ncccc23)C(=O)O)c(F)c1)C(F)(F)F [Example 290],6.5
12,Cc1cc(C(F)(F)F)c(-c2ccc(C[C@H](NC(=O)c3c(F)cc(N4CCOC[C@H]4CC(F)(F)F)cc3F)C(=O)O)c3cccnc23)c(=O)n1C [Example 254],3.2
13,N#Cc1ccc(-c2ccc(C[C@H](NC(=O)c3c(F)cc(NCC(F)(F)F)cc3F)C(=O)O)c3cccnc23)c(Cl)c1 [Example 332],23.7
14,N#Cc1ccc(-c2ccc(C[C@H](NC(=O)c3c(F)cc(NC4(C(F)F)CC4)cc3F)C(=O)O)c3cccnc23)c(Cl)c1 [Example 284],45.9
15,N#Cc1ccc(-c2ccc(C[C@H](NC(=O)c3c(F)cc(N4CCCCC4)cc3F)C(=O)O)c3cccnc23)c(Cl)c1 [Example 278],82.2
16,Cc1ccnc(-c2ccc(C[C@H](NC(=O)c3c(F)cc(N4CCOC[C@@H]4C(F)(F)F)cc3F)C(=O)O)c3cccnc23)c1C(F)(F)F [Example 223],2.2
17,N#Cc1ccc(-c2ccc(C[C@H](NC(=O)c3c(F)cc(N[C@@H]4CCCCC4(F)F)cc3F)C(=O)O)c3cccnc23)c(Cl)c1 [Example 170],93.7
